The record followed here is US9802942B2, “Substituted 4-methyl-pyrrolo[1,2-A]pyrimidine-8-carboxamide compounds and uses thereof for modulating glucocerebrosidase activity” (Northwestern University, priority 2015, dated 2017).

Where two headings read alike, the source gives them in different places.

Format in all cases: biochemical
Experiment [1] has as its target T1, recombinant wild type GCase (Homo sapiens, UniProt P04062).
T1 construct: purchased Shire Human Genetic Therapies, Inc. Vpriv
T1 sequence (P04062 40-536): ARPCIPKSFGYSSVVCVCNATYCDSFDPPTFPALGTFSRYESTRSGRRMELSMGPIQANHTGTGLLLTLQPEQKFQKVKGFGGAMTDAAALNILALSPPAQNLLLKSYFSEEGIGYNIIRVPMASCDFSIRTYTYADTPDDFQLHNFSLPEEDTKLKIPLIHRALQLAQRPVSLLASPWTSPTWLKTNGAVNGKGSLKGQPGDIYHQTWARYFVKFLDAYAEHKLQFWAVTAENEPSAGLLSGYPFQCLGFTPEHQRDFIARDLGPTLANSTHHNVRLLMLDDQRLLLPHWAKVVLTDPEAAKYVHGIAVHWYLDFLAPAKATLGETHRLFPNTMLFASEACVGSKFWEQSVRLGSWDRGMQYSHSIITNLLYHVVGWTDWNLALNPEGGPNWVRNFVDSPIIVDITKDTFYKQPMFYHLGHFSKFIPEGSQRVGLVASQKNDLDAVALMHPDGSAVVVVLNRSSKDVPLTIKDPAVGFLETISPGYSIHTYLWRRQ
Briefly: Covalent binding assay: activity of GCase activated by probe 4. The note with it: for enzyme activity comparing to the wt. GCase: covalent activation. As to the method:
To the recombinant wild type enzyme (22 μM, 95 μL, 1 equiv) in 0.1 M phosphate buffer (pH 7.2) was added 2,5-dioxopyrrolidin-1-yl 3-(2-(2-(4-(4-(2,4-dimethylpyrrolo[1,2-a]pyrimidine-8-carboxamido)phenyl)-1H-1,2,3-triazol-1-yl)ethoxy)ethoxy)propanoate (4) in DMSO (0.89 mM, 5 μL, 2 equiv) in one portion, and was vortexed for 5 sec immediately. At indicated time points, the reaction solution (2 μL) was sampled and diluted (1:3125 dilution) into the assay buffer (50 mM citric acid, 176 mM K2HPO4, and 0.01% Tween-20 at pH 5.9). After 2 h the reaction solution was dialyzed three times with 0.1 M phosphate buffer (pH 7.2). The enzyme was adjusted to the same concentration and sampled for activity. The dilution solutions were assayed with three substrates, resorufin substrate, 4-MU substrate, and natural substrate using the method in Example 5 and Example 6 without adding compounds.
The probe 4 was subjected to the covalent binding assay against GCase. The reaction conditions, including the buffer pH value, the concentration of the protein and probe, and the reaction temperature were carefully adjusted to achieve the maximum activation. With the optimized reaction condition, the enzyme activity was activated in a time-dependent manner (FIG. 5). The enzyme could be activated by probe 4 with around 22 and 28 folds activity comparing to the wt. GCase in the 4MU-Glc substrate (FIG. 5A) and red substrate (FIG. 5B) enzyme activity assay respectively.

Experiment [2] has as its target T2, glucocerebrosidase (GCase), recombinant wt. enzyme velaglucerase alfa (Homo sapiens, UniProt P04062).
T2 construct: purchased Shire Human Genetic Therapies, Inc. Vpriv
T2 sequence (P04062 40-536): T1 sequence (P04062 40-536)
Description: Glucocerebrosidase activity assay with blue substrate (4MU-Glc). As to the method:
(§1) The compounds in DMSO solution 0.5 μL/well were transferred to a black 96-well plate (the final titration was 24 nM to 50 μM, 12 concentrations, 2 times dilution). 33.5 μL enzyme solution (7.5 nM final concentration) was transferred to the wells. After 5 min of incubation at room temperature, the enzyme reaction was initiated by the addition of 33 μL/well blue substrate or 66.5 μL/well red substrate. Final concentrations of the blue substrate (4MU-Glc) and red substrate (Res-Glc) were 1.5 mM and 30 μM, respectively. The red substrate reaction was measured in the Biotek Synergy H1 multi-mode plate reader with Ex=573 nm and Em=610 nm at 37° C. every 20 sec for 30 min. The blue substrate reaction was terminated by the addition of 33 μL/well stop solution (1 M NaOH and 1 M glycine mixture, pH 10) after 30 min of incubation at 37° C. The fluorescence was then measured in the plate reader at Ex=365 nm and Em=440 nm.
The recombinant wt. enzyme velaglucerase alfa (Vpriv®, Shire Human Genetic Therapies, Inc.) was obtained from residual solution after clinical infusions. The GCase activity assay buffer was composed of 50 mM citric acid, 176 mM K2HPO4, and 0.01% Tween-20 at pH 5.9. A solution of 1 M sodium hydroxide and 1 M glycine was used as the stop solution for the 4MU-β-glc substrate assay.
The compounds in DMSO solution 0.5 μL/well was transferred to a black 96-well plate (the final titration was 24 nM to 50 μM, 12 concentrations). 33.5 μL enzyme solution (7.5 nM final concentration) was transferred to the wells. After 5 min of incubation at room temperature, the enzyme reaction was initiated by the addition of 33 μL/well 4MU-Glc substrate or 66.5 μL/well red substrate. Final concentrations of the 4MU-Glc substrate and Res-Glc substrate were 1.5 mM and 30 μM, respectively. The red substrate reaction was measured in the Biotek Synergy H1 multi-mode plate reader with Ex=573 nm and Em=610 nm at 37° C. in every 20 seconds for 30 min. The 4MU-Glc substrate reaction was terminated by the addition of 33 μL/well stop solution (1 M NaOH and 1 M glycine mixture, pH 10) after 30 min of incubation at 37° C. The fluorescence was then measured in the plate reader with Ex=365 nm and Em=440 nm.

Experiment [3] deals with T2, glucocerebrosidase (GCase), recombinant wt. enzyme velaglucerase alfa. Description: Glucocerebrosidase activity assay with red substrate (Res-β-glc). The following applies: red substrate enzyme activity assay. As to the method: as §1, with “nm. […]” for “nm.”
The compounds in DMSO solution 0.5 μL/well was transferred to a black 96-well plate (the final titration was 24 nM to 50 μM, 12 concentrations). […] The red substrate reaction was measured in the Biotek Synergy H1 multi-mode plate reader with Ex=573 nm and Em=610 nm at 37° C. in every 20 seconds for 30 min. […] The fluorescence was then measured in the plate reader with Ex=365 nm and Em=440 nm.

[4] abbreviates: Table 1, titration 24 nM to 50 μM, substrate not given, read-out: Ac50.
Where [5] appears, read: Table 2, values marked activator, read-out: Activity AC50 or IC50.

Turning to `Cc1cc(C)n2ccc(C(=O)Nc3ccc(-c4cn(CCOCCOCCC(=O)ON5C(=O)CCC5=O)nn4)cc3)c2n1` [No. 2, 2,5-Dioxopyrrolidin-1-yl 3-(2-(2-(4-(4-(2,4-dimethylpyrrolo[1,2-a]pyrimidine-8-carboxamido)phenyl)-1H-1,2,3-triazol-1-yl)ethoxy)ethoxy)propanoate], the “enzyme activity comparing to the wt. GCase” value in experiment [1] (4MU-Glc substrate) is given as “around 22 folds”; in experiment [1] (red substrate), approximately 28 folds. Besides, the “enzyme activity followed by dialysis” value in experiment [1] (three substrate assays, in words) is “not decreased significantly”. In addition, the “maximum activity / activation activity” value in experiment [2] (4MU-Glc substrate enzyme activity assay) was found to be 20 folds. Also, in experiment [3], the “activation activity, red substrate” value worked out at 10 folds.
`Cc1cc(C)n2ccc(C(=O)Nc3ccc(-c4cn(CCOCCOCCC(=O)NCCN5CCOCC5)nn4)cc3)c2n1` [compound 67]: in experiment [2] (setting [4]), the AC50 came to 8.91 µM.
`Cc1cc(C)n2ccc(C(=O)Nc3ccc(-c4cn(CCOCCOCCC(=O)NCCC5CCCN5C)nn4)cc3)c2n1` (centres unmarked) [compound 68]: the AC50 in experiment [2] (setting [4]) stood at 10 µM.
The same measure, in the same setting: under `Cc1cc(C)n2ccc(C(=O)Nc3ccc(-c4cn(CCOCCOCCC(=O)NC5CCCCC5)nn4)cc3)c2n1` [compound 69] stands 2 µM.
Consider `Cc1cc(C)n2ccc(C(=O)Nc3ccc(-c4cn(CCOCCOCCC(=O)NC5CCC5)nn4)cc3)c2n1` [compound 70], for which the concentration at half-maximal activity (AC50) in experiment [2] (setting [4]) came out at 3.55 µM.
Consider `Cc1cc(C)n2ccc(C(=O)Nc3ccc(-c4cn(CCOCCOCCC(=O)NCCOCCOCCOCCNC(=O)CCOCCOCCn5cc(-c6ccc(NC(=O)c7ccn8c(C)cc(C)nc78)cc6)nn5)nn4)cc3)c2n1` [compound 71], for which, in experiment [2] (Table 2), the “activator (word in Activity cell)” value is given as “activator”. In addition, the half-maximal activity concentration (AC50) in experiment [2] (setting [5]) was found to be 1.26 µM.
For `Cc1cc(C)n2ccc(C(=O)NCc3cccnc3Oc3ccccc3)c2n1` [compound 72] the same measures were “activator” and 6.13 µM.
For `Cc1cc(C)n2ccc(C(=O)Nc3ccc(I)cc3)c2n1` [compound 73] the same measures were “activator” and 0.316 µM.
The corresponding values for `COC(=O)CCCCCCCCC#Cc1ccc(NC(=O)c2ccn3c(C)cc(C)nc23)cc1` [compound 74] are “activator” and 0.71 µM.
For the compound `Cc1cc(C)n2ccc(C(=O)Nc3ccc(C#CCCCCCCC#Cc4ccc(N)cc4)cc3)c2n1` [compound 75], the “activator (word in Activity cell)” value in experiment [2] (Table 2) was “activator”. Also, in experiment [2] (setting [5]), the AC50 came out at 1.26 µM.
For `Cc1cc(C)n2ccc(C(=O)Nc3ccc(C#CCCCCCCC#Cc4ccc(NC(=O)c5ccn6c(C)cc(C)nc56)cc4)cc3)c2n1` [compound 76], in experiment [2] (Table 2), the “activator (word in Activity cell)” value is “activator”. Besides, the half-maximal activity concentration (AC50) in experiment [2] (setting [5]) is 28.2 µM.
The corresponding values for `COC(=O)CCCCCCCCC#Cc1ccc(NC(=O)c2ccn3c(C)cc(-c4cccnc4)nc23)cc1` [compound 78] are “activator” and 0.71 µM.
As for `Cc1cc(-c2cccnc2)nc2c(C(=O)Nc3ccc(C#CCCCCCCCCC(=O)O)cc3)ccn12` [compound 79], in experiment [2] (Table 2), the “activator (word in Activity cell)” value is recorded as “activator”. Further, the AC50 in experiment [2] (setting [5]) worked out at 3.54 µM.
Consider `COC(=O)CCCC#Cc1cccc(NC(=O)c2ccn3c(C)cc(C)nc23)c1` [compound 80], for which the “activator (word in Activity cell)” value in experiment [2] (Table 2) is “activator”.
For the compound `COC(=O)CCCCCc1cccc(NC(=O)c2ccn3c(C)cc(C)nc23)c1` [compound 81], the “activator (word in Activity cell)” value in experiment [2] (Table 2) was “activator”. Also, the AC50 in experiment [2] (setting [5]) turned out to be 1.78 µM.
Turning to `Cc1cc(C)n2ccc(C(=O)Nc3ccc(C#CCCCCCCCCC(=O)ON4C(=O)CCC4=O)cc3)c2n1` [compound 82], the “activator (word in Activity cell)” value in experiment [2] (Table 2) is recorded as “activator”. Further, the AC50 in experiment [2] (setting [5]) worked out at 0.8 µM.
For `Cc1cc(-c2cccnc2)nc2c(C(=O)Nc3ccc(C#CCCCCCCCCC(=O)ON4C(=O)CCC4=O)cc3)ccn12` [compound 83] the same measures were “activator” and 0.56 µM.

A word on the AC50: it is the concentration at which the activity in the assay is half-maximal.
